Laboratory results as given in US20110086759A1, “CHEMICAL COMPOUNDS” (SYNGENTA CROP PROTECTION, INC., priority 2007, published 2011).

Columns and labels:
Type in all cases: in vivo
[1] = system: Alopecurus myosuroides (ALOMY); assay: Post-emergence biological efficacy, glasshouse pot test; details: 312 h, post-emergence, 1,000 g/ha, evaluated after 13 days (100=total damage; 0=no damage), read-out: Percentage damage caused to weed species, ALOMY
How it was run: (§1)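 Pot-grown weeds were sprayed 8 days after sowing with test compound in acetone/water (50:50) with 0.5% Tween 20 at 1000 or 250 g/ha. Glasshouse at 24/16° C day/night, 14 h light, 65% humidity. Damage scored 0-100 (100 = total damage) after 13 days.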

[2] = system: Ipomea hederaceae (IPOHE); assay: as above; details: Ipomoea hederacea, 312 h; post-emergence, 1,000 g/ha, evaluated after 13 days (100=total damage; 0=no damage); read-out: Percentage damage caused to weed species, IPOHE
How it was run: as §1

Setaria faberi (SETFA) [3] = assay: as above; details: 312 h, post-emergence, 1,000 g/ha, evaluated after 13 days (100=total damage; 0=no damage), read-out: Percentage damage caused to weed species, SETFA
How it was run: as §1

Solanum nigrum (SOLNI) [4] = assay: as above; details: 312 h, post-emergence, 1,000 g/ha, evaluated after 13 days (100=total damage; 0=no damage), read-out: Percentage damage caused to weed species, SOLNI
How it was run: as §1

[5] = system: Echinochloa crus-galli (ECHCG); assay: as above; details: 312 h, post-emergence, 1,000 g/ha, evaluated after 13 days (100=total damage; 0=no damage), read-out: Percentage damage caused to weed species, ECHCG
How it was run: as §1

[6] = system: Amaranthus retoflexus (AMARE); assay: as above; details: Amaranthus retroflexus, 312 h; post-emergence, 1,000 g/ha, evaluated after 13 days (100=total damage; 0=no damage); read-out: Percentage damage caused to weed species, AMARE
How it was run: as §1

[7] = system: Alopecurus myosuroides (ALOMY); assay: Pre-emergence biological efficacy, glasshouse pot test; details: 312 h, pre-emergence, 1,000 g/ha, evaluated after 13 days (100=total damage; 0=no damage), read-out: Percentage damage ALOMY
How it was run: (§2)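 Visual phytotoxicity (0 no damage, 100 total damage) assessed 13 d after treatment. Soil-sown pots sprayed one day post-sowing; dose 1000 or 250 g/ha; formulation in acetone/water 50:50, 0.5% Tween 20.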

[8] = system: Ipomea hederaceae (IPOHE); assay: as above; details: Ipomoea hederacea, 312 h; pre-emergence, 1,000 g/ha, evaluated after 13 days (100=total damage; 0=no damage); read-out: Percentage damage IPOHE
How it was run: as §2

Setaria faberi (SETFA) [9] = assay: as above; details: 312 h, pre-emergence, 1,000 g/ha, evaluated after 13 days (100=total damage; 0=no damage), read-out: Percentage damage SETFA
How it was run: as §2

Solanum nigrum (SOLNI) [10] = assay: as above; details: 312 h, pre-emergence, 1,000 g/ha, evaluated after 13 days (100=total damage; 0=no damage), read-out: Percentage damage SOLNI
How it was run: as §2

[11] = system: Echinochloa crus-galli (ECHCG); assay: as above; details: 312 h, pre-emergence, 1,000 g/ha, evaluated after 13 days (100=total damage; 0=no damage), read-out: Percentage damage ECHCG
How it was run: as §2

[12] = system: Amaranthus retoflexus (AMARE); assay: as above; details: Amaranthus retroflexus, 312 h; pre-emergence, 1,000 g/ha, evaluated after 13 days (100=total damage; 0=no damage); read-out: Percentage damage AMARE
How it was run: as §2

Structure (SMILES) | pest or weed control at 1000 g/ha [1] | pest or weed control at 1000 g/ha [2] | pest or weed control at 1000 g/ha (Setaria faberi (SETFA) [3]) | pest or weed control at 1000 g/ha (Solanum nigrum (SOLNI) [4]) | pest or weed control at 1000 g/ha [5] | pest or weed control at 1000 g/ha [6] | pest or weed control at 1000 g/ha [7] | pest or weed control at 1000 g/ha [8] | pest or weed control at 1000 g/ha (Setaria faberi (SETFA) [9]) | pest or weed control at 1000 g/ha (Solanum nigrum (SOLNI) [10]) | pest or weed control at 1000 g/ha [11] | pest or weed control at 1000 g/ha [12]
COC(=O)c1nc(C2CC2)nc(NCc2cc3cc(Br)ccc3o2)c1Cl [Compound 4-164, 4-(5-Bromo-benzofuran-2-yl)methylamino-5-chloro-2-cyclopropyl-6-methoxycarbonyl-pyrimidine] | 30% | 80% | 70% | 100% | 60% | 100% | 30% | 100% | 30% | 50% | 30% | 50%
COC(=O)c1nc(C2CC2)nc(NC2(/C=C/c3cccc(Cl)c3)CC2)c1Cl [Compound 4-30, 5-Chloro-4-{1-[2-(3-chlorophenyl)-etenyl]-cyclopropylamino}-2-cyclopropyl-6-methoxycarbonyl-pyrimidine] | 10% | 100% | 60% | 70% | 30% | 100% | 0% | 40% | 10% | 0% | 0% | 20%
COC(=O)c1nc(C2CC2)nc(NC2(/C=C/c3ccc(Cl)cc3)CC2)c1Cl [Compound 4-21, 5-Chloro-4-{1-[2-(4-chlorophenyl)-ethenyl]-cyclopropylamino}-2-cyclopropyl-6-methoxycarbonyl-pyrimidine] | 20% | 80% | 60% | 80% | 50% | 100% | 0% | 70% | 0% | 50% | 0% | 20%
COC(=O)c1nc(C2CC2)nc(NC2(/C=C/c3ccccc3Cl)CC2)c1Cl [Compound 4-24, 5-Chloro-4-{1-[2-(2-chlorophenyl)-ethenyl]-cyclopropylamino}-2-cyclopropyl-6-methoxycarbonyl-pyrimidine] | 10% | 100% | 60% | 80% | 30% | 100% | 10% | 40% | 0% | 90% | 0% | 100%
